For 1 compound, Ki results are on record in patent US5296496A, “2-saccharinylmethyl phosphates, phosphonates and phosphinates useful as proteolytic enzyme inhibitors and compositions and method of use thereof” (Sterling Winthrop Inc., priority 1992, dated 1994).

This assay concerns the target T1, human leukocyte elastase (HLE) (Homo sapiens, UniProt P08246).
T1 sequence (P08246 30-267): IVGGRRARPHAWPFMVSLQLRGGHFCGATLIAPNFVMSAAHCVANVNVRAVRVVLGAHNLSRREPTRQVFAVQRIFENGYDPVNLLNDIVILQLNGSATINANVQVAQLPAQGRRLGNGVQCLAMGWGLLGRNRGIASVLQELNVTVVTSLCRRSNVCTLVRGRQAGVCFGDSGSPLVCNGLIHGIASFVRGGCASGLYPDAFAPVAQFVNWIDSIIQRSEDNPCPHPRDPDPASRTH
The experiment in a line: Inhibition constant Ki* of human leukocyte elastase (HLE), calculated as koff/kon. The assay is classed as biochemical. The settings on record: unit inferred.

Method: Thus, instead of measuring a Ki, a Ki * is calculated which is defined as the ratio of the koff /kon, the rate of reactivation of the enzyme to the rate of inactivation of the enzyme. The values of koff and kon are measured and Ki * is then calculated.
The rate of inactivation, kon, of enzymatic activity was determined for the compounds tested by measuring the enzyme activity of an aliquot of the respective enzyme as a function of time after addition of the test compound. […] The rate of inactivation is then equal to [formula] where [I] is the concentration of the inhibiting compound.
The reactivation constant, koff, is similarly determined, and the inhibition constant, Ki *, is then calculated as

As a reminder, the Ki is the equilibrium dissociation constant of an inhibitor or competing ligand from its target. Take `CCOP(=O)(OCC)OCN1C(=O)c2c(C(C)C)cc(OC)cc2S1(=O)=O` [Example 13]: the Ki is 35 pM.
